Laboratory results taken from ChEMBL document CHEMBL1201862, “PubChem BioAssay data set” (2004).
Activity calls are given as the source filed them.

Columns and labels:
Fatty acid synthase [1] = target: T1, Fatty acid synthase (Homo sapiens, UniProt P49327); test: inhibition of human FAS-TE enzyme activity – biochemical, endpoint fluorescence intensity, uHTS hits, dose response (AID 624327); assay type: functional;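 further: fluorescence from hydrolysis of an O-methyl fluorescein acyl ester substrate by the enzyme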
Fatty acid synthase [2] = target: T1, Fatty acid synthase; test: inhibition of human FAS-TE enzyme activity – biochemical, kinetic fluorescence intensity, dose response (AID 624326); assay type: functional;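 further: rate of fluorescence rise from hydrolysis of a fluorogenic O-methyl fluorescein ester substrate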
Vero = test: viability of Vero cells under compound – cytotoxicity control for flavivirus capping enzyme inhibitors (AID 588742); assay type: functional; conditions: Chlorocebus sabaeus
Protein Wnt-3a = Protein Wnt-3a (Mus musculus, UniProt P27467); test: antagonism of Wnt3a pathway luciferase reporter – Wnt-LIGHT cells, luminescence, selectivity assay for Gli-SUFU antagonist project, dose response (AID 651570); assay type: functional; conditions: read-out: IC50_Mean;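 further: Wnt-LIGHT reporter cells stimulated with conditioned medium from Wnt3a-producing cells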
P388/ADR = test: cells; assay type: functional; conditions: Mus musculus
SN12K1 = test: cells; assay type: functional; conditions: Homo sapiens
P388 = test: cells; assay type: functional; conditions: Mus musculus
[3] = target: T2, Corticotropin-releasing factor receptor 2/Corticotropin-releasing factor-binding protein (Homo sapiens, UniProt P24387+Q13324); test: Dose Response confirmation of uHTS hits for small molecule antagonists of the CRF-binding protein and CRF-R2 receptor complex.; assay type: functional; conditions: read-out: IC50_Mean
T2 sequence (Q13324 whole entry): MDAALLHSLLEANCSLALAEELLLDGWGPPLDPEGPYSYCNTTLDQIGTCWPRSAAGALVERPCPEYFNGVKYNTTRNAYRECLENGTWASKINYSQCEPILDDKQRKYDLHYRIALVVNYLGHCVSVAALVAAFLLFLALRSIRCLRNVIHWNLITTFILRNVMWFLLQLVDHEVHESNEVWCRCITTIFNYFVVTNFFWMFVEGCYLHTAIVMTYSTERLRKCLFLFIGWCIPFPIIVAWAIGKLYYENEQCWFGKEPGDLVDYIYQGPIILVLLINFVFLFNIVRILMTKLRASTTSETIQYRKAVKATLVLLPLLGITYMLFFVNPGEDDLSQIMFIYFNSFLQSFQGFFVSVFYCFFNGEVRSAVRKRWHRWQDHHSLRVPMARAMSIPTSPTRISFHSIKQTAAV
T2 sequence (P24387 whole entry): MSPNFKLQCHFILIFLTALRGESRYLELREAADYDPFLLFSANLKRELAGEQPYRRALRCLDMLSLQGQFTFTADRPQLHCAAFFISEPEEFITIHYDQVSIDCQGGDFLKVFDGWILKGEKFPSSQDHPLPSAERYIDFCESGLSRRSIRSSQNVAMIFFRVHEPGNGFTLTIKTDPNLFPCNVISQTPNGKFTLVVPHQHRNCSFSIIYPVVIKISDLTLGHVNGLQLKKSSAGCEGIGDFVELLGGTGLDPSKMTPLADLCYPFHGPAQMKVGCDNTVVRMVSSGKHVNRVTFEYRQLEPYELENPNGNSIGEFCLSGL

Protein skinhead-1 = target: T3, Protein skinhead-1 (Caenorhabditis elegans, UniProt P34707); assay type: functional
T3 sequence (P34707 whole entry): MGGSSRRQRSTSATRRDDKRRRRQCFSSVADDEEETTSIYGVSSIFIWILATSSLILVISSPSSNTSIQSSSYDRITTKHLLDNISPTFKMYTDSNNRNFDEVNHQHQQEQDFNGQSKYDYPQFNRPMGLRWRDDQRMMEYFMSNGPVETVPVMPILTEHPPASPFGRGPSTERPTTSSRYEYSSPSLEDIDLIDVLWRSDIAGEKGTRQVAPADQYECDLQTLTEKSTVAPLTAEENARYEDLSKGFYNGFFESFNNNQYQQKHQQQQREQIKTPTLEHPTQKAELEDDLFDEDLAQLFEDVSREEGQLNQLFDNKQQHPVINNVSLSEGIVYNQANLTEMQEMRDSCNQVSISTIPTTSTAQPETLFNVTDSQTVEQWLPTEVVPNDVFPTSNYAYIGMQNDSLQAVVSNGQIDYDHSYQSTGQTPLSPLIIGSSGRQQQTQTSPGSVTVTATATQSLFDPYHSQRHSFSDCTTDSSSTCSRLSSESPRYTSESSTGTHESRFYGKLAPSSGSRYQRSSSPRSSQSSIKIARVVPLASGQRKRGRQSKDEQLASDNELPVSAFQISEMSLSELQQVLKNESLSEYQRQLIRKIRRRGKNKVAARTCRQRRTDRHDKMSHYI

[4] = target: T2, Corticotropin-releasing factor receptor 2/Corticotropin-releasing factor-binding protein; test: activators of CRF receptor 2 with binding protein – uHTS hits, confirmation (AID 602473); assay type: functional; conditions: read-out: EC50_Mean
[5] = Luminescence Cell-Based Dose Retest to Confirm Inhibitors of Cancer Stem Cells. [Related pubchem assays (depositor defined):AID2717, AID2721]; assay type: functional; conditions: Homo sapiens
[6] = Luminescence Cell-Based Dose Response HTS to Identify Inhibitors of 5'UTR Stem-Loop Driven Prion Protein mRNA Translation in H4 Neuroglioblastoma Cells. [Related pubchem assays: 1827 (Project Summary), 1813 (Primary HTS)]; assay type: functional
[7] = luciferase reporter signal suppression in cells – H4 neuroglioma cells, luminescence, dose response (AID 1990); assay type: functional, cell-based
[8] = HEK-293T viability loss after treatment – luminescence, T-cell screen hits, cytotoxicity control for TCR NF-kB inhibitor project, dose response (AID 489026); assay type: functional, cell-based;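 further: cells exposed to compound about 14 hours before the viability readout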
[9] = alpha-synuclein stem-loop luciferase translation blockers – H4 neuroglioma cells, luminescence, confirmation (AID 1988); assay type: functional, cell-based
[10] = target: Heat shock protein HSP 90-alpha (Homo sapiens, UniProt P07900); assay type: functional, organism-based
[11] = non-specific 3'UTR reporter inhibition in Clone20-Shn3RL – cell-based, Renilla luciferase, cherry-picked, counter-screen for Shn3 inhibitor project, dose response (AID 624133); assay type: functional
[12] = loss of viability in HepG2 cells – cell-based, CellTiter-Glo, cherry-picked, cytotoxicity control for Shn3 inhibitor project, dose response (AID 624134); assay type: functional
[13] = reduction of Shn3 3'UTR-driven luciferase in osteoblasts – cell-based, Clone20 osteoblasts, firefly luciferase, cherry-picked, dose response (AID 624132); assay type: functional;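 further: firefly luciferase luminescence from reporter carrying the Shn3 3'UTR in osteoblasts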
INS1 = test: INS-1E survival protection against cytokine death – cell-based, luminescence, retest, dose response (AID 449756); assay type: functional; conditions: Rattus norvegicus;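 further: cell death triggered by IL-1 beta plus TNF-alpha plus IFN-gamma mixture; protective hits raise ATP signal compared with cytokine alone wells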
[14] = target: T4, RNA-binding protein pos-1 (Caenorhabditis elegans, UniProt G5EF15); test: disruptors of C. elegans POS-1 RNA interaction – biochemical, fluorescence polarization, dose response (AID 1964);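 further: purified POS-1 fused to maltose binding protein made in E. coli; potency of compounds blocking POS-1 binding to fluorescent RNA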
T4 sequence (G5EF15 whole entry): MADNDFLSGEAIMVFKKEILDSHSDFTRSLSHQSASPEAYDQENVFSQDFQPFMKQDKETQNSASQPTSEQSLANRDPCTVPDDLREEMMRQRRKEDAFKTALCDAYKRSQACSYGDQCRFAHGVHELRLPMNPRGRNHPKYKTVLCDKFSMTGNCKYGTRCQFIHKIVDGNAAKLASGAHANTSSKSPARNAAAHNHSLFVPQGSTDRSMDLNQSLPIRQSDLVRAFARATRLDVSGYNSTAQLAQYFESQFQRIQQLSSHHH

[15] = target: T5, Zinc finger protein mex-5 (Caenorhabditis elegans, UniProt Q9XUB2); test: potency of MEX-5 RNA-binding blockers – biochemical, C. elegans, fluorescence polarization, dose response (AID 1960)
T5 sequence (Q9XUB2 whole entry): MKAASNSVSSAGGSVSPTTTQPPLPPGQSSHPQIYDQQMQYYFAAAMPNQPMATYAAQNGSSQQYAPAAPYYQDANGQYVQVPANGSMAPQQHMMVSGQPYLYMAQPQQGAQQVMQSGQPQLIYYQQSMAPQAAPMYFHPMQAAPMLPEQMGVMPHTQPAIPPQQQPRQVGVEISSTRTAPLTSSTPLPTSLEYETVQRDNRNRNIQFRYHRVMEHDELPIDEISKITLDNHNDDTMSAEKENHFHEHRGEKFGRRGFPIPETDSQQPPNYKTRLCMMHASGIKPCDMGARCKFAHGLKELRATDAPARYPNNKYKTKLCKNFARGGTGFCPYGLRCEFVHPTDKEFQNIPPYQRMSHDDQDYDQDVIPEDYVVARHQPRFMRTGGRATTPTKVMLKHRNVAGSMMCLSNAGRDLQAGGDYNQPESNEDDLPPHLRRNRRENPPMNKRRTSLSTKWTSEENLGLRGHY

[16] = microbe, parasite or virus in culture; assay type: functional; conditions: Mycobacterium tuberculosis
[17] = THP-1 cell cytotoxicity, dose response, cytotoxicity control for non-replicating M. tuberculosis project (AID 489025); assay type: functional
[18] = Vero E6 cell cytotoxicity, dose response, cytotoxicity control for non-replicating M. tuberculosis project, secondary assay (AID 492998); assay type: functional, VeroE6; conditions: Vero C1008
[19] = HepG2 cell cytotoxicity, dose response, cytotoxicity control for non-replicating M. tuberculosis project (AID 489018); assay type: functional; conditions: Mycobacterium tuberculosis
cells = assay type: functional

T1 sequence (P49327 whole entry): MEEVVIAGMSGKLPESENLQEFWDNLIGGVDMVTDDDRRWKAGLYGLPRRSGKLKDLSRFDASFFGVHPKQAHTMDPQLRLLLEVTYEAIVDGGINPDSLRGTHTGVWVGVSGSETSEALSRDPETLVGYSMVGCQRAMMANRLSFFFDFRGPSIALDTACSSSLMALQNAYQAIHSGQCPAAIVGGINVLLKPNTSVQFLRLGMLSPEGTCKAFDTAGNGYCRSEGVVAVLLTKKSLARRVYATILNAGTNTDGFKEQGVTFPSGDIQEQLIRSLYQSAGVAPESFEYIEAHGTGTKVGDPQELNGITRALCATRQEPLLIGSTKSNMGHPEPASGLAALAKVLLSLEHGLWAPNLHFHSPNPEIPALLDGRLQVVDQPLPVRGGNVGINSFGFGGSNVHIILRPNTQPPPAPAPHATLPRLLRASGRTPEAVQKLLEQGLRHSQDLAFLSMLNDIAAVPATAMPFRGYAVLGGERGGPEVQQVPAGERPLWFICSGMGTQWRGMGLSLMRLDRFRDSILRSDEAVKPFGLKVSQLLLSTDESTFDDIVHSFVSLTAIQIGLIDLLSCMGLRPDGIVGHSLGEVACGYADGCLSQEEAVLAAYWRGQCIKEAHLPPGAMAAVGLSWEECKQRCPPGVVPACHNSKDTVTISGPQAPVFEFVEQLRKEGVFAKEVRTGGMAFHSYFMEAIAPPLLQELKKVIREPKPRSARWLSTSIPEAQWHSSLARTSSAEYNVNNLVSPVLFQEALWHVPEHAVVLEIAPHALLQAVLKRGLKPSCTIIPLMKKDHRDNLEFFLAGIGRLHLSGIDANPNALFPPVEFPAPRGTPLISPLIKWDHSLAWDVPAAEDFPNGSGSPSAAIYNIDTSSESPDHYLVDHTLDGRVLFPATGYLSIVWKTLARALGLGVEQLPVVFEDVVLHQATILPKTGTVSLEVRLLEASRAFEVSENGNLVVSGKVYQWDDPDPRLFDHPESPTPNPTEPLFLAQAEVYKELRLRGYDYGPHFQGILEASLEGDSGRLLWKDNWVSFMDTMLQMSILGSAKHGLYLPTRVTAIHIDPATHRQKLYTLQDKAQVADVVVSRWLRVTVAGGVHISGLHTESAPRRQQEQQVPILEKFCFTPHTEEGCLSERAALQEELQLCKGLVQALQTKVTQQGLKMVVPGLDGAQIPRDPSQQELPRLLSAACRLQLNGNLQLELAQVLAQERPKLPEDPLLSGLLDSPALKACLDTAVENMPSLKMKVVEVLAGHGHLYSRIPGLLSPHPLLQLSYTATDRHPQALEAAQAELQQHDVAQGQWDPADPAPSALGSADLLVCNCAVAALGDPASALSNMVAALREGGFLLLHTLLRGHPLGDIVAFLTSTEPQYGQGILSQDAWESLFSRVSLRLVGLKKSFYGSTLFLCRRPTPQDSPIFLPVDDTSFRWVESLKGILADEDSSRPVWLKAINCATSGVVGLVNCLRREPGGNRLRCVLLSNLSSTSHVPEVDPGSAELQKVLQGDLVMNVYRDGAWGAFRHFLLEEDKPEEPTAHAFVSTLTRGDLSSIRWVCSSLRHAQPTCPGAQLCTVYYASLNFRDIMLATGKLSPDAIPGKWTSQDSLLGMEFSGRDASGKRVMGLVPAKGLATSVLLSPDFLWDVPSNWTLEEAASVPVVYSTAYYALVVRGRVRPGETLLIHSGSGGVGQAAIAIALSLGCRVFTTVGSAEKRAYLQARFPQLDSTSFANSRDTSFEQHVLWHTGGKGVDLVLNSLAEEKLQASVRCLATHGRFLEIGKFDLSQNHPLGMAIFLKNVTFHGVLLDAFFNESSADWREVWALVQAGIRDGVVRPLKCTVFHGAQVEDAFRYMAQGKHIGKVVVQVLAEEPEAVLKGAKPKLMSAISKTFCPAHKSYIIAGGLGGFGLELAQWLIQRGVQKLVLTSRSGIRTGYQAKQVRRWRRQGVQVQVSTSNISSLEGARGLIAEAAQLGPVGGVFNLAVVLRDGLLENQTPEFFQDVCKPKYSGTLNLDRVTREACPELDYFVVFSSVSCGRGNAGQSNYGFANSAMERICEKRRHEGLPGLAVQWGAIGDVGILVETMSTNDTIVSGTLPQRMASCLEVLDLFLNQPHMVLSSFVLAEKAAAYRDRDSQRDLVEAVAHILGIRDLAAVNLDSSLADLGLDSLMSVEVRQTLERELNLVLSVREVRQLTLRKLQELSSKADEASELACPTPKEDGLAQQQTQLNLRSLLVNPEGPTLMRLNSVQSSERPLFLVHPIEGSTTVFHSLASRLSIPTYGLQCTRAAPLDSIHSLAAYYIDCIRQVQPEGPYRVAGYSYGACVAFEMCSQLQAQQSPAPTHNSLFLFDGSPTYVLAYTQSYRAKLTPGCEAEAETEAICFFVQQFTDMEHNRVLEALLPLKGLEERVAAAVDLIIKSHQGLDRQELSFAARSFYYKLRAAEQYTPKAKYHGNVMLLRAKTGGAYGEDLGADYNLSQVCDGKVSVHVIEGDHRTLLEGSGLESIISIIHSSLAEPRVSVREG
Protein Wnt-3a, sequence (P27467 whole entry): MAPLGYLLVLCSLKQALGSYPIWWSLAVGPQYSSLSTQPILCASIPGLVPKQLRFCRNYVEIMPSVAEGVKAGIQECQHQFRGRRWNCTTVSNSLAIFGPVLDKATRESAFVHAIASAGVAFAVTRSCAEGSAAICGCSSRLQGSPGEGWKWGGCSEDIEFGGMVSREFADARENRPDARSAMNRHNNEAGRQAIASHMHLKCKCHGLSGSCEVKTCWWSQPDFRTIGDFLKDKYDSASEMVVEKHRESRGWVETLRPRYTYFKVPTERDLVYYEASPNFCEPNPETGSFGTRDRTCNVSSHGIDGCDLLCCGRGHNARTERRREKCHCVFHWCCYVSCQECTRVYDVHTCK

Cc1ccc(O)c(NC(=O)c2cc([N+](=O)[O-])ccc2Cl)c1
IC50 (Fatty acid synthase [1]): 13.4 µM (active) | IC50 (Fatty acid synthase [2]): 15.8 µM (active)

CCN1C(=O)/C(=C/C=C2\C=CN(CC)c3ccccc32)SC1=S
CC50 (Vero): > 40 µM (active)

Cn1c(=O)c2c(nc(NCCOc3ccc(C(C)(C)C)cc3)n2C)n(C)c1=O
IC50 (Protein Wnt-3a): 1.2 µM (active)

COC(=O)NC1C(C)OC(OC2C/C=C(/C)C3C=CC4C(OC5CC(OC6CC(O)C(OC7CC(O)C(OC)C(C)O7)C(C)O6)C(O)C(C)O5)C(C)CC(C)C4C3(C)C(=O)C3=C(O)C4(CC(C)C(CO)=CC4/C=C\2C)OC3=O)CC1(C)[N+](=O)[O-] (stereo not drawn)
GI50 (P388/ADR): 5.56 µM (inactive) | GI50 (SN12K1): 6.21 µM (inactive) | GI50 (P388): 3.55 µM (inactive)

Cn1nnc2cc(C(=O)NCCC3=CCCCC3)ccc21
IC50 [3]: > 47.1 µM (inactive) | IC50 (Protein skinhead-1): > 100 µM (inactive) | EC50 [4]: > 53 µM (inactive)

O=C1CC(c2cc(Br)ccc2F)c2cc3c(cc2N1)CCC3 (stereo not drawn)
AC50 [5]: < 0.16 µM (active) | EC50 [6]: 2.01 µM (active) | EC50 [7]: 7.6 µM (active) | IC50 [8]: > 80 µM (inactive) | EC50 [9]: 1.48 µM (inconclusive)

C=CCn1c(C)cc(C(=O)CSc2nc(O)c3ccccc3n2)c1C
AC50 [10]: 2.6 µM (active)

Cc1c(C(C)C)c(=O)n(-c2ccc(S(=O)(=O)NCc3ccccc3)cc2)n1C
AC50 [11]: 1.96 µM (active) | AC50 [12]: 2.48 µM (active) | AC50 [13]: 1.18 µM (active) | IC50 (Protein Wnt-3a): 5.02 µM (active) | AC50 (INS1): 2.71 µM (active)

CCCCN1C(=O)/C(=C/C=C2\Oc3ccccc3N2CC)SC1=S
EC50 [14]: 48.2 µM (active) | AC50 [10]: 171 µM (active) | EC50 [15]: > 300 µM (not active)

C/C(=N\NC(=O)c1cc2ccccc2cc1O)c1ccc(C)o1
CC50 [16]: 22.7 µM (active) | CC50 [17]: 21.9 µM (active) | CC50 [18]: 16 µM (active) | CC50 [19]: > 20 µM (active) | CC50 (Vero): 32 µM (active) | IC50 (cells): 6.26 µM (active)

O=[N+]([O-])c1ccc(C(O)C(CO)N=C(S)Nc2ccccc2)cc1 (stereo not drawn)
IC50 (Fatty acid synthase [1]): 20.8 µM (inactive) | IC50 (Fatty acid synthase [2]): 24.8 µM (inactive)

O=C(NC(Cc1ccc(Br)cc1)C(=O)O)c1ccc(I)cc1 (stereo not drawn)
GI50 (P388/ADR): > 66.1 µM (inactive) | GI50 (SN12K1): > 100 µM (inactive) | GI50 (P388): > 80.9 µM (inactive)

S=P1(Sc2ccccc2)Oc2ccc3ccccc3c2-c2c(ccc3ccccc23)O1
GI50 (P388/ADR): > 100 µM (inactive) | GI50 (SN12K1): > 100 µM (inactive) | GI50 (P388): > 100 µM (inactive)
